≈ marks a conversion by molar mass, not a printed value.
Experiments:
[1] = system: spontaneously hypertensive rats; test: Antihypertensive efficacy test in spontaneously hypertensive rats (systolic blood pressure and heart rate by implanted blood pressure sensor); assay type: in vivo, rat; details: SHR, intragastric, 1 mg/kg as azilsartan; for Change in heart rate / Changes in systolic blood pressure: mean ± standard error
Description: 12-week-old spontaneously hypertensive rats (hereinafter referred to as SHR, purchased from Beijing Vital River Laboratory Animal Technology Co., Ltd.) were anesthetized with 2.5% sodium pentobarbital for intraperitoneal injection. The blood pressure sensing catheter of a blood pressure implant was inserted into the abdominal aorta, the implant was fixed to the abdominal wall, and the postoperative daily care was performed after suturing. Animals with systolic blood pressure exceeding 160 mmHg were selected into a total of 3 groups with 8 animals in each group. The control group was given 0.5% CMC-Na (sodium carboxymethylcellulose); in the OR01019 group and the QR01019K group, the compounds were dissolved in 0.5% CMC-Na, and the doses were all administered at an effective dose of 1 mg/kg of azilsartan with an administration volume of 4 mL/kg by intragastric administration. The systolic blood pressure and heart rate of the animals before the administration were used as reference values, and the changes of systolic blood pressure and heart rate of SHR at each time point before and after administration were compared, in which the systolic blood pressure and heart rate of SHR were measured three times at each time point and then averaged.

[2] = Determination of equilibrium solubility; assay type: physicochemical; details: for solubility thermodynamic at 24 h: 37 °C, thermodynamic from solid, 37±2° C., based on azilsartan
[3] = before administration (reference value)
[4] = aqueous buffer, pH 4.5 (acetate buffer)
[5] = aqueous buffer, pH 6.8 (phosphate buffer)
[6] = aqueous buffer, pH 7.8 (phosphate buffer)
[7] = simulated gastric fluid, pH 1.0 (hydrochloric acid solution)

Row | SMILES | Change in heart rate ([1]; 1 hour after administration) | Changes in systolic blood pressure ([1]; 1 hour after administration) | Change in heart rate ([1]; 3 hours after administration) | Changes in systolic blood pressure ([1]; 3 hours after administration) | Change in heart rate ([1]; 5 hours after administration) | Changes in systolic blood pressure ([1]; 5 hours after administration) | Change in heart rate ([1]; 7 hours after administration) | Changes in systolic blood pressure ([1]; 7 hours after administration) | Change in heart rate ([1]; 10 hours after administration) | Changes in systolic blood pressure ([1]; 10 hours after administration) | Change in heart rate ([1]; 24 hours after administration) | Changes in systolic blood pressure ([1]; 24 hours after administration) | Change in heart rate [1, 3] | Changes in systolic blood pressure [1, 3] | solubility thermodynamic at 24 h [2, 4] | solubility thermodynamic at 24 h [2, 5] | solubility thermodynamic at 24 h [2, 6] | solubility thermodynamic at 24 h [2, 7] | solubility thermodynamic at 24 h ([2]; Pure water) | further results
1 | CCOc1nc2cccc(C(=O)OC(C)OC(=O)OCc3nc(C)c(C)nc3C)c2n1Cc1ccc(-c2ccccc2-c2noc(=O)[nH]2)cc1 (centres unmarked) [QR01019, reference compound] | −3.4 ± 2.6 times/minute | −4.9 ± 4.8 mmHg | −2.33 ± 2.6 times/minute | −22.0 ± 3.6 mmHg | −6.5 ± 2.8 times/minute | −30.5 ± 3.5 mmHg | −6.2 ± 3.0 times/minute | −38.8 ± 2.3 mmHg | −12.3 ± 2.8 times/minute | −33.0 ± 1.7 mmHg | −6.7 ± 2.6 times/minute | −10.2 ± 2.1 mmHg | 0.0 ± 0.0 times/minute | 0.0 ± 0.0 mmHg | 0.06 µg/mL (≈ 0.0884 µM) | 1.6 µg/mL (≈ 2.36 µM) | 13.6 µg/mL (≈ 20 µM) | 2.01 µg/mL (≈ 2.96 µM) | 0.74 µg/mL (≈ 1.09 µM) | –
2 | CCOc1nc2cccc(C(=O)OC(C)OC(=O)OCc3nc(C)c(C)nc3C)c2n1Cc1ccc(-c2ccccc2-c2noc(=O)[n-]2)cc1.[K+] (centres unmarked) [QR01019K] | −3.6 ± 2.4 times/minute | −7.0 ± 3.4 mmHg | −5.0 ± 2.5 times/minute | −34.3 ± 1.9 mmHg | −10.1 ± 3.0 times/minute | −46.5 ± 2.5 mmHg | −17.5 ± 3.0 times/minute | −49.4 ± 4.1 mmHg | −25.4 ± 2.4 times/minute | −45.3 ± 3.3 mmHg | −28.6 ± 8 times/minute | −25.9 ± 3.4 mmHg | 0.0 ± 0.0 times/minute | 0.0 ± 0.0 mmHg | 2.3 µg/mL | 25.9 µg/mL | 400 µg/mL | 18.7 µg/mL | 542 µg/mL | antihypertensive effect compared with QR01019 (in words) [1]: more potent and longer-lasting antihypertensive effect than QR01019; effect of reducing heart rate compared with QR01019 (in words) [1]: more potent and longer-lasting effect of reducing heart rate than QR01019; concentrations in acidic and neutral media compared with QR01019 (in words) ([2]; equilibrium solubility, Table 5): much higher than QR01019
